Measured values from ChEMBL document CHEMBL1151483, “Hantupeptin A, a cytotoxic cyclic depsipeptide from a Singapore collection of Lyngbya majuscula” (J Nat Prod, 2009).
Active and inactive are the calls of the source. The rule behind the calls is not given here.

How the values were obtained:
KB = test: Cytotoxicity against human KB cells at 10 ug/mL after 24 hrs by MTT assay; type: functional, cell-based
LoVo = test: Cytotoxicity against human LoVo cells at 10 ug/mL after 24 hrs by MTT assay; type: functional, cell-based
MOLT-4 = test: Cytotoxicity against human MOLT4 cells after 24 hrs by MTT assay; type: functional, cell-based; settings: MOLT-4, 24 h
MCF7 = test: Cytotoxicity against human MCF7 cells after 24 hrs by MTT assay; type: functional, cell-based; settings: MCF7, 24 h
[1] = Toxicity in brine shrimp at 10 ppm; type: organism-based; settings: artemia, in vivo; read-out: Activity
[2] = Toxicity in brine shrimp at 100 ppm; type: organism-based; settings: artemia, in vivo; read-out: Activity

Compound | Activity (KB) | Activity (LoVo) | IC50 (MOLT-4) [nM] | IC50 (MCF7) [nM] | mortality at 10 ppm [1] [%] | mortality at 100 ppm [2] [%]
C#CCCC[C@H]1OC(=O)[C@H]([C@@H](C)CC)NC(=O)[C@@H]2CCCN2C(=O)[C@H](Cc2ccccc2)OC(=O)[C@H](C(C)C)N(C)C(=O)[C@H](C(C)C)NC(=O)[C@H]1C | inactive | inactive | – | – | – | –
C#CCCC[C@@H]1OC(=O)[C@H](C(C)C)N(C)C(=O)[C@@H]2CCCN2C(=O)[C@H](Cc2ccccc2)OC(=O)[C@H]([C@@H](C)CC)N(C)C(=O)[C@H](C(C)C)NC(=O)C1C (stereo partly drawn) [HANTUPEPTIN A] | inactive | inactive | 32 | 4000 | 100 | 100
